Like-named read-outs stand apart in the source and are kept apart here.
How the values were obtained:
[1] = Pharmacokinetics of ceftolozane/tazobactam in healthy volunteers; type: in vivo, human; settings: single 1.5 g intravenous dose of CXA-201, healthy male adults
[2] = Population pharmacokinetic analysis of 10 clinical studies (Example 7); type: in vivo, human
Excerpt: Base model development. […] Intrinsic covariates analyzed included body weight, age, gender, ethnicity, and baseline calculated CrCL). The CrCL was estimated using the Cockcroft-Gault formula: […] […] Final population PK model: evaluation and performance. […] Smaller shrinkage ≦0.2 indicates good individual estimates.

[3] = Phase 1 single dose PK of 750 mg ceftolozane/tazobactam in severe renal impairment and ESRD on hemodialysis (Example 8); type: in vivo, human; settings: for AUC(0-t) / Cmax / half-life / Tmax / AUC(0-inf) / clearance / Vd: both sexes, human, plasma; for Cmax: read-out: Cmax, Mean (CV %); for half-life: read-out: t1/2, Mean (CV %) (converted); for Tmax: read-out: tmax, Median (minimum, maximum); for AUC(0-inf): read-out: AUC∞, Mean (CV %); for clearance: read-out: CL, Mean (CV %) (converted); for Vd: read-out: Vss, Mean (CV %)
Experimental: This was a Phase 1, multicenter, prospective, open-label study of 750 mg ceftolozane/tazobactam (as CXA-201) administered IV in male and female adult subjects with severe renal impairment (estimated CLCR<30 mL/min) and subjects with end-stage renal disease (ESRD) on hemodialysis (HD). The primary objective of the study was to determine the PK profile of ceftolozane/tazobactam in subjects with severe renal impairment and subjects with ESRD on HD and to determine the effect of HD on the clearance of ceftolozane/tazobactam.
Subjects with severe renal impairment received a single IV 1-hour infusion of 750 mg ceftolozane/tazobactam on Day 1. […] Subjects in this cohort received an IV dose of 750 mg ceftolozane/tazobactam as a 1 hour infusion immediately after their first HD session on Day 1 (postdialysis, approximately 72 hours prior to the next HD session) and a second dose of ceftolozane/tazobactam approximately 2 hours before their second HD session on Day 4 of the study. Infusion of ceftolozane/tazobactam was completed approximately 1 hour before the start of HD.
Subjects in both cohorts had urine (if not anuric) and plasma samples collected for determination of levels of ceftolozane, tazobactam and the M1 metabolite of tazobactam; subjects in the ESRD on HD cohort also had dialysate fluid samples collected for PK assessment. Plasma, urine, and dialysate levels of ceftolozane, tazobactam, and its metabolite M1 collected over a prespecified interval were determined by LC/MS/MS assay.
All subjects underwent hemodialysis for 3 to 4 hours using a high-flux membrane (either 1.4, 1.8, or 1.9 m^2) on Days 1, 4, and 6 as scheduled. Average blood flow rate was 264 to 600 mL/min and average dialysis flow rate was either 600 or 800 mL/min for all subjects with ESRD.

[4] = clinical; settings: human, in vivo
Excerpt: CXA-201 plasma concentrations from 6 subjects with ESRD following a single dose without HD and a second dose with HD were used to develop a pPK model (Phoenix NLME, Pharsight).

[5] = Phase I PK studies in subjects with varying degrees of renal function (Example 11); type: in vivo, human
Excerpt: Male and female subjects, aged 18 to 79 years, with varying degrees of renal function were enrolled in two, prospective, open-label, phase I studies of intravenous ceftolozane/tazobactam. A total of 36 subjects were enrolled into cohorts based on degree of renal function: normal (n=11), mild impairment (n=6), moderate impairment (n=7), severe impairment (n=6), and ESRD on HD (n=6). To ensure subjects with ESRD were receiving effective HD, a target adequacy of HD calculated from the pre- and post-blood urea nitrogen ratios (Kt/V) of at least 1.2 for a minimum of 3 months prior to enrollment was required. Renal impairment groups were classified according to the 2010 U.S.

[6] = cited from earlier work
[7] = cited from earlier work; remark: listed apart in the source
[8] = intravenous, 750 mg, ESRD on HD, second infusion Day 4, start of infusion to end of dialysis
[9] = iv, 750 mg, ESRD on HD, Day 1 IV infusion of 750 mg (non-hemodialysis phase)
[10] = iv, 750 mg, ESRD on HD, second IV infusion of 750 mg on Day 4 (during HD)
[11] = iv, 750 mg, severe renal impairment, single IV 1-hour infusion of 750 mg ceftolozane/tazobactam
[12] = moderate renal impairment, single 1,000 mg/500 mg dose
[13] = severe renal impairment, single 500 mg/250 mg dose

Q: What does the source list for `C[C@]1(Cn2ccnn2)[C@H](C(=O)O)N2C(=O)C[C@H]2S1(=O)=O` [Tazobactam]?
A: excreted in the urine as unchanged parent drug [1]: More than 80%; between-subject variability (BSV) of CL ([2]; final population PK model): 50.2%; between-subject variability (BSV) of Vc ([2]; final population PK model): 52.5%; inter-compartment clearance (CL2) ([2]; final population PK model): 3.13 L/h; volume of distribution in the peripheral compartment (Vp) ([2]; final population PK model): 4.29 L; clearance ([2]; human, plasma, intravenous, final population PK model, read-out: CL, population estimate (converted)): 300 mL/min; Vc, population estimate ([2]; subjects without infection): 14.2 L; AUC(0-t) ([3]; intravenous, 750 mg, ESRD on HD, second infusion Day 4, approximately 6 hours from start of infusion to end of dialysis, read-out: AUClast, Mean (CV %)): 28800 ng·h/mL; Cmax [3, 8]: 15700 ng/mL; half-life [3, 8]: 0.98 h; Tmax [3, 8]: 1 h; AUC(0-t) ([3]; intravenous, 750 mg, subjects with ESRD, read-out: Exposure (AUC48h) After HD (Day 1), Median (Range)): 107000 ng·h/mL; AUC(0-t) ([3]; intravenous, 750 mg, subjects with ESRD, read-out: Exposure (AUC48h) During HD (Day 3), Median (Range)): 37100 ng·h/mL; AUC(0-inf) [3, 9]: 105000 ng·h/mL; clearance [3, 9]: 50 mL/min; Cmax [3, 9]: 21200 ng/mL; Vd [3, 9]: 17 L; half-life [3, 9]: 5.23 h; AUC(0-t) ([3]; iv, 750 mg, ESRD on HD, Day 1 IV infusion of 750 mg (non-hemodialysis phase), through 48 hours, read-out: AUClast, Mean (CV %)): 103000 ng·h/mL; Cmax [3, 10]: 15600 ng/mL; half-life [3, 10]: 5.2 h; AUC(0-t) ([3]; iv, 750 mg, ESRD on HD, second IV infusion of 750 mg on Day 4 (during HD), through 44 hours, read-out: AUClast, Mean (CV %)): 38400 ng·h/mL; AUC(0-t) ([3]; iv, 750 mg, severe renal impairment, single IV 1-hour infusion of 750 mg ceftolozane/tazobactam, through 48 hours, read-out: AUClast, Mean (CV %)): 50300 ng·h/mL; Cmax [3, 11]: 15200 ng/mL; AUC(0-inf) [3, 11]: 52400 ng·h/mL; clearance [3, 11]: 85 mL/min; Vd [3, 11]: 16.5 L; half-life [3, 11]: 2.6 h; Tmax ([3]; ESRD on HD, second IV infusion of 750 mg on Day 4 (during HD)): 1 h; removed by dialysis ([3]; subjects with ESRD on HD): ~56%; AUC48h Ratio (Day 3:1), Median (Range) ([3]; subjects with ESRD, during HD vs after HD): 0.44 (0.26 − 0.53); Percent Removed, Median (Range) ([3]; subjects with ESRD, hemodialysis): 56 (47 − 74) Percent; Vd [4]: 11 L; clearance [4]: 51.2 mL/min; increase of CL by HD [4]: 6.6 fold; increase of Vc by HD [4]: 1.5 fold; extraction ratio ([5]; 1 h after the start of HD): 48%; extraction ratio ([5]; 2 h after the start of HD): 54%; median Cmax in plasma higher compared with normal renal function, dose normalized ([5]; ESRD during non-HD): 2.4 fold; average extraction ratio during HD ([5]; ESRD on HD): 53%; median RDHD (percent reduction in plasma concentration during HD) ([5]; ESRD on HD): 95%; reduction in overall exposure based on the AUC0-∞ on and off HD ([5]; ESRD on HD): ~56%; plasma concentration rebound peak following HD, of the original Cmax ([5]; ESRD, period following HD): ~6%; extraction ratio ([5]; at end of HD): 55%; clearance ([5]; both sexes, human, dialysate and plasma, intravenous, ESRD on HD, read-out: median dialysis clearance (CLD) (converted)): 73.2 mL/min; half-life ([5]; both sexes, human, plasma, intravenous, ESRD on HD, read-out: t1/2 during the HD period (converted)): 0.91 h; increase of median AUC0-∞ compared with normal renal function [5, 12]: 2.2 fold; increase of median Cmax compared with normal renal function [5, 12]: 1.6 fold; increase of median AUC0-∞ compared with dose-normalized exposure in normal renal function [5, 13]: 3.8 fold; increase of median Cmax compared with dose-normalized exposure in normal renal function [5, 13]: 1.9 fold; terminal elimination half-life (t½β) ([6]; healthy volunteers): ~1 h; Terminal elimination half-lives (t1/2) ([6]; patients with normal renal function): ~1 h; excreted in the urine as the unchanged parent drug ([6]; remainder as inactive M1 metabolite): 80%; protein binding [7]: ~30%
